Legend:
[1] = target: T1, human PDE5 (Homo sapiens, UniProt O76074); assay: Inhibition of PDE5 activity (modified SPA test, human platelet lysate); type: biochemical; settings: PDE5-containing human platelet lysate, 0.5 μM cGMP substrate, 37° C.
T1 construct: from tissue; host or cells: human platelets from fresh donor blood (10,000 g supernatant of sonified platelets)
Experimental: As a source for human PDE5, platelets were used. For that purpose, 150 ml fresh blood from human donors anticoagulated with citrate [final concentration 0.3% (w/v)] was centrifuged at 200 g for 10 min to obtain the so-called platelet-rich-plasma (PRP) as a supernatant. 1/10 volume of ACD solution (85 mM Na3-citrate, 111 mM D-glucose, 71 mM citric acid, pH 4.4) was added to 9/10 volume of PRP. After centrifugation (1,400 g, 10 min) the cell pellet was resuspended in 3 ml homogenization buffer (NaCl 140 mM, KCl 3.8 mM, EGTA 1 mM, MgCl2 1 mM, Tris-HCl 20 mM, beta-mercaptoethanol 1 mM, pH 8.2) plus protease-inhibitor mix giving rise to the final concentrations of 0.5 mM Pefablock (Roche), 10 μM Leupeptin, 5 μM Trypsininhibitor, 2 mM Benzamidin and 10 μM Pepstatin A. The suspension was sonified and thereafter centrifuged for 15 min at 10,000 g. The resulting supernatant (platelet lysate) was used for enzymatic testings.
PDE5A1 activity is inhibited by the compounds of the invention in a modified SPA (scintillation proximity assay) test, supplied by Amersham Biosciences (see procedural instructions “phosphodiesterase [3H]cAMP SPA enzyme assay, code TRKQ 7090”), carried out in 96-well microtitre plates (MTP's). The test volume is 100 μl and contains 20 mM Tris buffer (pH 7.4), 0.1 mg of BSA (bovine serum albumin)/ml, 5 mM Mg^2+, 1 μM motapizone, 10 nM PDE2 inhibitor BAY-60-7550, 0.5 μM cGMP (including about 50,000 cpm of [3H]cGMP as a tracer), 1 μl of the respective compound dilution in dimethylsulfoxide (DMSO) and sufficient PDE5-containing platelet lysat (10,000×g supernatant, see above) to ensure that 10-20 wt % of the cGMP is converted under the said experimental conditions. […] After a preincubation of 5 min at 37° C., the reaction was started by adding the substrate (cGMP) and the assay was incubated for a further 15 min; after that, it was stopped by adding SPA beads (50 μl). In accordance with the manufacturer's instructions, the SPA beads had previously been resuspended in water, but were then diluted 1:3 (v/v) in water; the diluted solution also contains 3 mM 8-methoxymethyl-3-isobutyl-1-methylxanthine (IBMX) to ensure a complete PDE activity stop. After the beads have been sedimented (>30 min), the MTP's are analyzed in commercially available luminescence detection devices. The corresponding IC50 values of the compounds for the inhibition of PDE activity are determined from the concentration-effect curves by means of non-linear regression.

Compound	melting point	IC50 [1]
CC1(C)CC(=O)c2c(nc(Cc3ccc(F)cc3)c3[nH]c4ccccc4c23)C1 [Example 28, 6-(4-Fluoro-benzyl)-3,3-dimethyl-2,3,4,7-tetrahydro-indolo[2,3-c]quinolin-1-one]	200 to 204 °C	18.2 nM
CC1(C)CC(=O)c2c(nc(Cc3cccc(Cl)c3)c3[nH]c4ccccc4c23)C1 [Example 35, 6-(3-Chloro-benzyl)-3,3-dimethyl-2,3,4,7-tetrahydro-indolo[2,3-c]quinolin-1-one]	206 to 209 °C	37.2 nM
CC1(C)CC(=O)c2c(nc(Cc3cc(F)cc(Cl)c3)c3[nH]c4ccccc4c23)C1 [Example 36, 6-(3-Chloro-5-fluoro-benzyl)-3,3-dimethyl-2,3,4,7-tetrahydro-indolo[2,3-c]quinolin-1-one]	219 to 221 °C	234 nM
CC1(C)CC(=O)c2c(nc(Cc3ccc(N)cc3)c3[nH]c4ccccc4c23)C1 [Example 40, 6-(4-Amino-benzyl)-3,3-dimethyl-2,3,4,7-tetrahydro-indolo[2,3-c]quinolin-1-one]	123 to 124 °C	11.7 nM
CC1(C)CC(=O)c2c(nc(Cc3cccc(N)c3)c3[nH]c4ccccc4c23)C1 [Example 41, 6-(3-Amino-benzyl)-3,3-dimethyl-2,3,4,7-tetrahydro-indolo[2,3-c]quinolin-1-one]	232 to 234 °C	5.13 nM
CC(=O)Nc1ccc(Cc2nc3c(c4c2[nH]c2ccccc24)C(=O)CC(C)(C)C3)cc1 [Example 44, N-[4-(3,3-Dimethyl-1-oxo-2,3,4,7-tetrahydro-1H-indolo[2,3-c]quinolin-6-ylmethyl)-phenyl]-acetamide]	153 to 154 °C	16.6 nM

Molecules with a lower IC50 [1], results first:

melting point	IC50 [1]	Compound
138 to 140 °C	2.24 nM	COc1ccc(Cc2nc3c(c4c2[nH]c2ccccc24)C(=O)CC(C)(C)C3)c(F)c1 [Example 27, 6-(2-Fluoro-4-methoxy-benzyl)-3,3-dimethyl-2,3,4,7-tetrahydro-indolo[2,3-c]quinolin-1-one]
228 to 230 °C	1.26 nM	COc1ccc(Cc2nc3c(c4c2[nH]c2ccccc24)C(=O)CCC3)cc1F [Example 29, 6-(3-Fluoro-4-methoxy-benzyl)-2,3,4,7-tetrahydro-indolo[2,3-c]quinolin-1-one]
118 to 120 °C	3.98 nM	COc1ccc(Cc2nc3c(c4c2[nH]c2ccccc24)CCCC3)cc1F [Example 30, 6-(3-Fluoro-4-methoxy-benzyl)-2,3,4,7-tetrahydro-1H-indolo[2,3-c]quinoline]
199 to 200 °C	0.398 nM	COc1ccc(Cc2nc3c(c4c2[nH]c2ccccc24)C(=O)CC(C)(C)C3)c(F)c1F [Example 31, 6-(2,3-Difluoro-4-methoxy-benzyl)-3,3-dimethyl-2,3,4,7-tetrahydro-indolo[2,3-c]quinolin-1-one]
195 to 196 °C	0.191 nM	COc1c(F)cc(Cc2nc3c(c4c2[nH]c2ccccc24)C(=O)CC(C)(C)C3)cc1F [Example 32, 6-(3,5-Difluoro-4-methoxy-benzyl)-3,3-dimethyl-2,3,4,7-tetrahydro-indolo[2,3-c]quinolin-1-one]
184 to 192 °C (dec.)	4.9 nM	CC1(C)CC(=O)c2c(nc(Cc3cccc(F)c3)c3[nH]c4ccccc4c23)C1 [Example 34, 6-(3-Fluoro-benzyl)-3,3-dimethyl-2,3,4,7-tetrahydro-indolo[2,3-c]quinolin-1-one]
193 to 196 °C (dec.)	4.9 nM	CC1(C)CC(=O)c2c(nc(Cc3ccc4c(c3)OCO4)c3[nH]c4ccccc4c23)C1 [Example 37, 6-Benzo[1,3]dioxol-5-ylmethyl-3,3-dimethyl-2,3,4,7-tetrahydro-indolo[2,3-c]quinolin-1-one]
216 to 218 °C	0.631 nM	CC1(C)CC(=O)c2c(nc(Cc3ccc(O)c(F)c3)c3[nH]c4ccccc4c23)C1 [Example 38, 6-(3-Fluoro-4-hydroxy-benzyl)-3,3-dimethyl-2,3,4,7-tetrahydro-indolo[2,3-c]quinolin-1-one]

Source: patent US20100120730A1, “6-BENZYL-2,3,4,7-TETRAHYDRO-INDOLO [2,3-C] QUINOLINE COMPOUNDS USEFUL AS PDE5 INHIBITORS” (NYCOMED GmbH, priority 2007, published 2010)
